Assay results taken from the C3SDB collision cross section collection.
Where “and” joins values, the source holds several entries; their conditions need not be identical. Equal values may be shown once. Blank lines part the entries; values can stand above or below the compound they belong to.

Experiments:
[1] = instrument: TW, calibrated with polyalanine
[2] = instrument: TW, calibrated with phosphatidylcholines (ESI+) and phosphatidylethanolamines (ESI-)
[3] = instrument: DT, stepped-field
[4] = instrument: DT, single field, calibrated with Agilent tune mix (Agilent)
[5] = [M+H]+; instrument: DT; stepped-field
[6] = [M-H]-; instrument: DT; stepped-field
[7] = instrument: DT, single field, calibrated with Agilent tune mix (Agilent); remark: listed apart in the source
[8] = instrument: TW, calibrated with phosphatidylcholines (ESI+) and phosphatidylethanolamines (ESI-); remark: listed apart in the source

collision cross section (N2) ([2]; [M+NH4]+): 302.2 Å²
collision cross section (N2) ([2]; [M+Na]+): 298 Å²
Compound: CCCCCCCCCCCCC=CCC(=O)OC[C@H](CO[C@@H]1O[C@H](CO[C@H]2O[C@H](CO)[C@H](O)C(O)C2O)[C@H](O)C(O)C1O)OC(=O)CC=CCCCCCCCCCCCC (some centres undefined) [DGDG(32:2)]

collision cross section (N2) ([2]; [M+H]+): 299.8 Å²
Compound: CCCCCCCCCCCCCCCCCC(=O)OC(COC(=O)CCCCCCCCCCCCCC)COP(=O)([O-])OCC(O)COC(=O)C(N)CCCC[NH3+] (centres undefined) [LysPG(33:0)]

collision cross section (N2) ([2]; [M+H]+): 299.6 Å²
Compound: CCCCCC/C=C/CCCCCCCCCC(=O)OCC(COP(=O)([O-])OCC(O)COC(=O)C(N)CCCC[NH3+])OC(=O)CCCCCCCCCCCCCCC (centres undefined) [LysPG(34:1)]

collision cross section (N2) ([2]; [M+H]+): 300.8 Å²
Compound: CCCCCC/C=C\CCCCCCCCCC(=O)OCC(COP(=O)([O-])OCC(O)COC(=O)C(N)CCCC[NH3+])OC(=O)CCCCCCCC/C=C\CCCCCC (centres undefined) [LysPG(35:2)]

collision cross section (N2) ([2]; [M+H]+): 302.8 Å²
Compound: CCCCCC/C=C\CCCCCCCCCC(=O)OCC(COP(=O)([O-])OCC(O)COC(=O)C(N)CCCC[NH3+])OC(=O)CCCCCCCCC/C=C\CCCCCC (centres undefined) [LysPG(36:2)]

collision cross section (N2) ([2]; [M-H]-): 256.3 Å²
collision cross section (N2) [6]: 259.2 Å²
Compound: CCCCCCCCCC/C=C\CCCCCCCCCC(=O)O[C@H](COC(=O)CCCCCCCCCCC)COP(=O)(O)O [PA(16:0/18:1)]

collision cross section (N2) ([2]; [M-H]-): 248.2 Å²
Compound: CCCCCCCCCCCCCCCCCC(=O)O[C@H](COC(=O)CCCCCCCCCCCC)COP(=O)(O)O [PA(31:0)]

collision cross section (N2) ([2]; [M-H]-): 251.2 Å²
Compound: CCCC/C=C\CCCCCCCC(=O)O[C@H](COC(=O)CCCCCCCCCCCCC)COP(=O)(O)OC[C@@H](O)CO [PG(28:1)]

collision cross section (N2) ([7]; [M-H]-): 263.3 Å²
collision cross section (N2) ([2]; [M-H]-): 263.3 Å²
collision cross section (N2) ([8]; [M+Na]+): 274.1 Å²
collision cross section (N2) ([8]; [M-H]-): 262.5 Å²
collision cross section (N2) [6]: 270.4 Å²
Compound: CCCCCCCC/C=C\CCCCCCCCCC(=O)O[C@H](COC(=O)CCCCCCCCCCC)COP(=O)(O)OC[C@@H](O)CO [PG(32:1)]

collision cross section (N2) ([2]; [M-H]-): 270.8 Å²
collision cross section (N2) ([8]; [M+Na]+): 282.2 Å²
collision cross section (N2) ([8]; [M-H]-): 269 Å²
collision cross section (N2) [6]: 277.6 Å²
Compound: CCCCCCCCCCCCCCCCCCCC(=O)OC[C@H](COP(=O)(O)OC[C@@H](O)CO)OC(=O)CCCCCCCCCCCCC [PG(34:0)]

collision cross section (N2) ([7]; [M+H]+): 286.8 Å²
collision cross section (N2) ([7]; [M+NH4]+): 287.3 Å²
collision cross section (N2) ([7]; [M-H]-): 270.2 Å²
collision cross section (N2) ([2]; [M-H]-): 269.9 Å²
collision cross section (N2) ([8]; [M+Na]+): 281.1 Å²
collision cross section (N2) ([8]; [M-H]-): 268.9 Å²
Compound: CCCCCCCCCC/C=C\CCCCCCCCCC(=O)O[C@H](COC(=O)CCCCCCCCCCC)COP(=O)(O)OC[C@@H](O)CO [PG(34:1)]

collision cross section (N2) ([2]; [M-H]-): 277.9 Å²
Compound: CCCCCCCCCCCCCCCCCCCCC(=O)OC[C@H](COP(=O)(O)OC[C@@H](O)CO)OC(=O)CCCCCCCCCCCCCC [PG(36:0)]

collision cross section (N2) ([7]; [M+H]+): 288.9 Å²
collision cross section (N2) ([7]; [M+Na]+): 286 Å²
collision cross section (N2) ([2]; [M-H]-): 274.9 Å²
collision cross section (N2) ([8]; [M+Na]+): 284.7 Å²
collision cross section (N2) ([8]; [M-H]-): 274.3 Å²
collision cross section (N2) [6]: 282.3 Å² and 281.9 Å²
Compound: CCCC/C=C\CCCCCCCC(=O)OC[C@H](COP(=O)(O)OC[C@@H](O)CO)OC(=O)CCCCCCCCC/C=C\CCCCCCCCCC [PG(36:2)]

collision cross section (N2) ([2]; [M-H]-): 252.2 Å²
Compound: CCCC/C=C\CCCCCCCC(=O)O[C@H](CO/C=C\CCCCCCCCCCCCC)COP(=O)(O)OC[C@@H](O)CO [PG(p29:1)]

collision cross section (N2) ([2]; [M-H]-): 255.3 Å²
Compound: CCCC/C=C\CCCCCCCC(=O)O[C@H](CO/C=C\CCCCCCCCCCCCCC)COP(=O)(O)OC[C@@H](O)CO [PG(p30:1)]

collision cross section (N2) ([2]; [M-H]-): 262.1 Å²
Compound: CCCC/C=C\CCCCCCCC(=O)O[C@H](CO/C=C\CCCCCCCCCCCCCCCC)COP(=O)(O)OC[C@@H](O)CO [PG(p32:1)]

collision cross section (N2) ([2]; [M-H]-): 263.4 Å²
Compound: CCCC/C=C\C/C=C\CCCCCCCC(=O)O[C@H](CO/C=C\CCCCCCCCCCCCCC)COP(=O)(O)OC[C@@H](O)CO [PG(p33:2)]

Further lines, the compound ahead of its results:

Compound: COc1cc2c(c3oc(=O)c4c(c13)CCC4=O)[C@@H]1CCO[C@@H]1O2 [Aflatoxin B2]
collision cross section (N2) ([1]; [M+H]+): 162 Å²
collision cross section (N2) ([1]; [M+K]+): 181.4 Å²
collision cross section (N2) ([1]; [M+Na]+): 176.8 Å²

Compound: Cc1cc(O)cc2oc(=O)c3c(O)cc(O)cc3c12 [Alternariol]
collision cross section (N2) ([1]; [M-H]-): 146 Å²

Compound: CC(C)[C@H]1OC(=O)[C@H](Cc2ccccc2)N(C)C(=O)[C@@H](C(C)C)OC(=O)[C@H](Cc2ccccc2)N(C)C(=O)[C@@H](C(C)C)OC(=O)[C@H](Cc2ccccc2)N(C)C1=O [Beauvericin]
collision cross section (N2) ([1]; [M+H]+): 283.8 Å²
collision cross section (N2) ([1]; [M+K]+): 290.3 Å²
collision cross section (N2) ([1]; [M+NH4]+): 269 Å²
collision cross section (N2) ([1]; [M+Na]+): 287.4 Å²

Compound: CCCCCCCCCCCCCCC(=O)OC[C@H](CO[C@@H]1O[C@H](CO[C@H]2O[C@H](CO)[C@H](O)C(O)C2O)[C@H](O)C(O)C1O)OC(=O)CCCCCCCCCCCCCC (some centres undefined) [DGDG(30:0)]
collision cross section (N2) ([2]; [M+NH4]+): 302.4 Å²
collision cross section (N2) ([2]; [M+Na]+): 299.6 Å²

Compound: CCCCCCCCCCCCCCCCC(=O)OC[C@H](CO[C@@H]1O[C@H](CO[C@H]2O[C@H](CO)[C@H](O)C(O)C2O)[C@H](O)C(O)C1O)OC(=O)CCCCCCCCCCCCCCCC (some centres undefined) [DGDG(34:0)]
collision cross section (N2) ([2]; [M+NH4]+): 314.2 Å²
collision cross section (N2) ([2]; [M+Na]+): 311.8 Å²

Compound: CCCCCCCCCCCCCCC=CCC(=O)OC[C@H](CO[C@@H]1O[C@H](CO[C@H]2O[C@H](CO)[C@H](O)C(O)C2O)[C@H](O)C(O)C1O)OC(=O)CC=CCCCCCCCCCCCCCC (some centres undefined) [DGDG(36:2)]
collision cross section (N2) ([2]; [M+K]+): 315.3 Å²
collision cross section (N2) ([2]; [M+NH4]+): 315.2 Å²
collision cross section (N2) ([2]; [M+Na]+): 312.4 Å²

Compound: CC[C@H](C)[C@H]1C(=O)O[C@H](C(C)C)C(=O)N(C)[C@@H]([C@@H](C)CC)C(=O)O[C@H](C(C)C)C(=O)N(C)[C@@H](C(C)C)C(=O)O[C@H](C(C)C)C(=O)N1C [Enniatin A1]
collision cross section (N2) ([1]; [M+H]+): 252.2 Å²
collision cross section (N2) ([1]; [M+K]+): 257.9 Å²
collision cross section (N2) ([1]; [M+NH4]+): 259 Å²
collision cross section (N2) ([1]; [M+Na]+): 258 Å²

Compound: CC[C@H](C)[C@H]1C(=O)O[C@H](C(C)C)C(=O)N(C)[C@@H]([C@@H](C)CC)C(=O)O[C@H](C(C)C)C(=O)N(C)[C@@H]([C@@H](C)CC)C(=O)O[C@H](C(C)C)C(=O)N1C [Enniatin A]
collision cross section (N2) ([1]; [M+H]+): 257.9 Å²
collision cross section (N2) ([1]; [M+K]+): 264.7 Å²
collision cross section (N2) ([1]; [M+NH4]+): 264 Å²
collision cross section (N2) ([1]; [M+Na]+): 262.4 Å²

Compound: CCCC[C@@H](C)[C@@H](OC(=O)C[C@@H](CC(=O)O)C(=O)O)[C@H](C[C@@H](C)C[C@H](O)CCCC[C@@H](O)C[C@H](O)[C@H](C)N)OC(=O)C[C@@H](CC(=O)O)C(=O)O [Fumonisin B1]
collision cross section (N2) ([1]; [M+H]+): 258 Å²
collision cross section (N2) ([1]; [M+K]+): 269 Å²
collision cross section (N2) ([1]; [M+Na]+): 264.4 Å²

Compound: N[C@@H](CSSC[C@H](N)C(=O)O)C(=O)O [L-Cystine]
collision cross section (N2) ([3]; [M+H]+): 150.08 Å²
collision cross section (N2) ([3]; [M+Na]+): 151.81 Å²
collision cross section (N2) ([3]; [M-H]-): 144.39 Å²
collision cross section (N2) ([4]; [M+H]+): 149.4 Å²

Compound: N[C@@H](Cc1cnc[nH]1)C(=O)O [L-Histidine]
collision cross section (N2) [5]: 132.41 Å²
collision cross section (N2) ([3]; [M+H]+): 132.74 Å²
collision cross section (N2) ([3]; [M+Na]+): 135.48 Å²
collision cross section (N2) ([3]; [M-H]-): 130.01 Å²
collision cross section (N2) ([4]; [M+H]+): 131.9 Å²

Compound: CC(C)C[C@H](N)C(=O)O [L-Leucine]
collision cross section (N2) [5]: 135.16 Å²
collision cross section (N2) ([3]; [M+H]+): 135.56 Å²
collision cross section (N2) ([3]; [M-H]-): 132.51 Å²

Compound: O=C(O)[C@@H]1CCCN1 [L-Proline]
collision cross section (N2) [5]: 126.48 Å²
collision cross section (N2) ([3]; [M+H]+): 126.22 Å²
collision cross section (N2) ([4]; [M+H]+): 125.1 Å²

Compound: CCCCC/C=C\C/C=C\CCCCCCCC(=O)O [Linoleic acid]
collision cross section (N2) ([3]; [M-H]-): 175.69 Å²
collision cross section (N2) ([4]; [M-H]-): 173.24 Å²

Compound: CCCCCCCCCCCCCCCCCCCCC(=O)OC(COC(=O)CCCCCCCCCCCCCC)COP(=O)([O-])OCC(O)COC(=O)C(N)CCCC[NH3+] (centres undefined) [LysPG(36:0)]
collision cross section (N2) ([2]; [M+H]+): 308.7 Å²

Compound: CC/C=C\C/C=C\C/C=C\CCCCCCCC(=O)OC[C@H](CO[C@@H]1O[C@H](CO)[C@H](O)C(O)C1O)OC(=O)CCCCC/C=C\C/C=C\C/C=C\CC (some centres undefined) [MGDG(16:3/18:3)]
collision cross section (N2) ([2]; [M+CH3COO]-): 280.3 Å²
collision cross section (N2) ([2]; [M+Cl]-): 273.7 Å²
collision cross section (N2) ([2]; [M+K]+): 273.6 Å²
collision cross section (N2) ([2]; [M+Na]+): 273.1 Å²
collision cross section (N2) ([2]; [M-H]-): 269.9 Å²

Compound: CSCC[C@H](NC(=O)[C@H](CC(C)C)NC(=O)CNC(=O)[C@H](Cc1ccccc1)NC(=O)[C@H](Cc1ccccc1)NC(=O)[C@H](CCC(N)=O)NC(=O)[C@H](CCC(N)=O)NC(=O)[C@@H]1CCCN1C(=O)[C@H](CCCCN)NC(=O)[C@@H]1CCCN1C(=O)[C@@H](N)CCCN=C(N)N)C(N)=O [Substance P]
collision cross section (N2) ([3]; [M+2H]2+): 399.88 Å²
collision cross section (N2) ([3]; [M+3H]3+): 495.74 Å²
collision cross section (N2) ([3]; [M+H]+): 362.51 Å²

Compound: O=c1[nH]c(=O)c2[nH]c(=O)[nH]c2[nH]1 [Uric acid]
collision cross section (N2) ([3]; [M-H]-): 126.93 Å²
